# Results published in ChEMBL document CHEMBL3991601, “The target landscape of clinical kinase drugs” (Science, 2017).
# Where a name gives a salt, the structure may show the parent alone. Active and inactive are the calls of the source. Rule as the data show it, for most assays here: actives have a measured Kd and inactives only a lower limit.
# Tests used:
# [1] = molecular target: T1, Serine/threonine-protein kinase ULK1 (Homo sapiens, UniProt O75385)
# T1 sequence (O75385 whole entry): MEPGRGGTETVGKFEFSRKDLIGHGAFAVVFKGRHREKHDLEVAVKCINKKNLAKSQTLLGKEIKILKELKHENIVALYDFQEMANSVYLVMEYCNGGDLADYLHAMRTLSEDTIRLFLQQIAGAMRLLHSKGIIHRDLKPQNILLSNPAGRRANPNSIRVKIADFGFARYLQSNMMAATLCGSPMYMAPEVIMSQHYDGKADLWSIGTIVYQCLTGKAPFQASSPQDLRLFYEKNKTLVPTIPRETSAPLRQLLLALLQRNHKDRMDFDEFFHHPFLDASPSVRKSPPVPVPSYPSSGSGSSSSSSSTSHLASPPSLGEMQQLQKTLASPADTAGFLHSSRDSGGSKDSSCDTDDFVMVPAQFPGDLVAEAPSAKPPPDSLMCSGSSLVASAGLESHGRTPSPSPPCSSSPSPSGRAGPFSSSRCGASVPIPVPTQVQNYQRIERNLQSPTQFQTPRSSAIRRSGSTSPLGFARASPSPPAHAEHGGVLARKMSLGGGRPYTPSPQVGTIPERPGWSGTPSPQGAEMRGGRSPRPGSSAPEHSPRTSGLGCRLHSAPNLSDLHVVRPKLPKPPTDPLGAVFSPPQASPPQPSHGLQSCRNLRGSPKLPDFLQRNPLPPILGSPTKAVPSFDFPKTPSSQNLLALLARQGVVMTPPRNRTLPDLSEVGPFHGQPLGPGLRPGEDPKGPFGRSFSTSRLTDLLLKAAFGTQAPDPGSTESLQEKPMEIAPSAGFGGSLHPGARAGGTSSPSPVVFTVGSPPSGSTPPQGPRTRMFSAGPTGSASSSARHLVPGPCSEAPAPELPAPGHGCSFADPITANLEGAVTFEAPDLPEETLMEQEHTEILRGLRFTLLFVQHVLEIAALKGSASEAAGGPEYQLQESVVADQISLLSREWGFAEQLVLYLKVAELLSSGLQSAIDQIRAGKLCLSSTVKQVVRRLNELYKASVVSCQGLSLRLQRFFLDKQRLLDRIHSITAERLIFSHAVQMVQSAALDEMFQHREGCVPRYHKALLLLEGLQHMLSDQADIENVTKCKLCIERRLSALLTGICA
# [2] = molecular target: Mitogen-activated protein kinase kinase kinase 4 (Homo sapiens, UniProt Q9Y6R4)
# Mitogen-activated protein kinase kinase kinase 4, sequence (Q9Y6R4 whole entry): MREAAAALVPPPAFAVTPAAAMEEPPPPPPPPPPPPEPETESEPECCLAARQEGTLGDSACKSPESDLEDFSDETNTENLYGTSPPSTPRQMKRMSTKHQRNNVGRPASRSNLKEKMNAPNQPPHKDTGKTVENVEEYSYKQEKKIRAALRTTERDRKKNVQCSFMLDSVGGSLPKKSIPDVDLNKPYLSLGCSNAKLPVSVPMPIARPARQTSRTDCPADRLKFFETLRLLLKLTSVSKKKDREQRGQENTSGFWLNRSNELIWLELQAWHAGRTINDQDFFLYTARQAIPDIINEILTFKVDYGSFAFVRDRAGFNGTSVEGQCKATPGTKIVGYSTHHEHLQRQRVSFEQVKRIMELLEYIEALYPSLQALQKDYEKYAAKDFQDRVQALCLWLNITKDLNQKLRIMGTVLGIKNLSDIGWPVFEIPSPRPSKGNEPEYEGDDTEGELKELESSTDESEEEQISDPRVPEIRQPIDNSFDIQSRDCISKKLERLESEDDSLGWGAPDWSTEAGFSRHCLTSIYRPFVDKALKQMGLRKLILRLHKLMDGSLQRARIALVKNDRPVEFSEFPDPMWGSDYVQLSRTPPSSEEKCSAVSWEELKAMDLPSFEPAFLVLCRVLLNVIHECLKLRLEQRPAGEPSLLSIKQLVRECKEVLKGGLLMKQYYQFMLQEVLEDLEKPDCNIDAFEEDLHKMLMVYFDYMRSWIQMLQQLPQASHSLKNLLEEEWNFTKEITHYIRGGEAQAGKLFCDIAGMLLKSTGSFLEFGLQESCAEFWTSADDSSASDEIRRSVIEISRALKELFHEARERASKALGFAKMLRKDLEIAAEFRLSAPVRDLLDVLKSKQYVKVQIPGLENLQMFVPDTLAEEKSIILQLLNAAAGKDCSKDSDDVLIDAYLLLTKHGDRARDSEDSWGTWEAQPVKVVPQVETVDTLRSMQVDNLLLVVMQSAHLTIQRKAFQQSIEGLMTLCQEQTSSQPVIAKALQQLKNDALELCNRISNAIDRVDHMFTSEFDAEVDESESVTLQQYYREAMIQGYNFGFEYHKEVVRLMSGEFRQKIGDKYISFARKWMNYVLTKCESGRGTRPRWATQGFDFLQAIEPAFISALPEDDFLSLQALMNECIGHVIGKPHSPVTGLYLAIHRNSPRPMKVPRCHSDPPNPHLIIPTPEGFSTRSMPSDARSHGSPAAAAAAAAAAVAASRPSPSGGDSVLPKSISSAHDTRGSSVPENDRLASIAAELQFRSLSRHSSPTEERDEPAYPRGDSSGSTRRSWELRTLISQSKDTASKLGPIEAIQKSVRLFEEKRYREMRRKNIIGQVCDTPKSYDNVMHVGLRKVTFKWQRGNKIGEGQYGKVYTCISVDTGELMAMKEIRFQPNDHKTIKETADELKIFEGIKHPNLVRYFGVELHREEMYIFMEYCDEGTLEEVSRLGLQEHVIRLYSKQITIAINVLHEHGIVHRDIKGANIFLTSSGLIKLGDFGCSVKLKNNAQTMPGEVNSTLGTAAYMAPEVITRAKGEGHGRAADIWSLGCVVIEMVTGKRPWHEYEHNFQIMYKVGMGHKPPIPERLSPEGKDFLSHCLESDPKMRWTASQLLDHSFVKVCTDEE
# Deoxycytidine kinase = Deoxycytidine kinase (Homo sapiens, UniProt P27707)
# Deoxycytidine kinase, sequence (P27707 whole entry): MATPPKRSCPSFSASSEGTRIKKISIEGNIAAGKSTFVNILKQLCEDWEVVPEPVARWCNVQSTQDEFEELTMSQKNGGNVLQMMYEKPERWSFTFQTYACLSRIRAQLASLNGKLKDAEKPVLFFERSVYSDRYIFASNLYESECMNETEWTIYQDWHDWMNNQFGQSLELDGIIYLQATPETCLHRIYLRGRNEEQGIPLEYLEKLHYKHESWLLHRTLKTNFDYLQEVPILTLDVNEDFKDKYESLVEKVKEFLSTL
# [3] = molecular target: T2, Serine/threonine-protein kinase 3 (Homo sapiens, UniProt Q13188)
# T2 sequence (Q13188 whole entry): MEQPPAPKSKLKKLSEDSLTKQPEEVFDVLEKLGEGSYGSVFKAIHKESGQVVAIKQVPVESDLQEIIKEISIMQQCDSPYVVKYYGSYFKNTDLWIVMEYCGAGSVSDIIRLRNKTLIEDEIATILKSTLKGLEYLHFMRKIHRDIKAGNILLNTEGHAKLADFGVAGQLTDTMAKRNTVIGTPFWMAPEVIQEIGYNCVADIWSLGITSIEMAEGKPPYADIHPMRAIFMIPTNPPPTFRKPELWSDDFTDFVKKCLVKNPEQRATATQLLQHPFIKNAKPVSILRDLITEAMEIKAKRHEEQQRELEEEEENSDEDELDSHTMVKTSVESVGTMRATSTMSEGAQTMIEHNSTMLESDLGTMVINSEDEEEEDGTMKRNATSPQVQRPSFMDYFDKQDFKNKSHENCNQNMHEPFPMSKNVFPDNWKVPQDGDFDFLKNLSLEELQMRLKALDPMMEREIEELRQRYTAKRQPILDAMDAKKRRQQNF
# [4] = molecular target: T3, Serine/threonine-protein kinase STK11 (Homo sapiens, UniProt Q15831)
# T3 sequence (Q15831 whole entry): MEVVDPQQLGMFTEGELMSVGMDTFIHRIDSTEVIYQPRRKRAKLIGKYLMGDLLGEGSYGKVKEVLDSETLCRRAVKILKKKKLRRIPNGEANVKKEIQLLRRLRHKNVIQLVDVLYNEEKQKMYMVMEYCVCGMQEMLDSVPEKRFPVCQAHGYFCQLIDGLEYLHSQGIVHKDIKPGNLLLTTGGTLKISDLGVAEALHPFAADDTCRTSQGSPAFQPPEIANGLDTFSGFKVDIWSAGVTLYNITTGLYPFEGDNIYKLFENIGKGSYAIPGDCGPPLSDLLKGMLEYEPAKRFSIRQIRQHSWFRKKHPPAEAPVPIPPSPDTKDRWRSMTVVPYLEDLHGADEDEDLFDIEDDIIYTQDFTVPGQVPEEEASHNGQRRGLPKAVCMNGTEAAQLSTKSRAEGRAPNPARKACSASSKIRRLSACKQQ
# Heme oxygenase 2 = molecular target: T4, Heme oxygenase 2 (Homo sapiens, UniProt P30519)
# T4 sequence (P30519 whole entry): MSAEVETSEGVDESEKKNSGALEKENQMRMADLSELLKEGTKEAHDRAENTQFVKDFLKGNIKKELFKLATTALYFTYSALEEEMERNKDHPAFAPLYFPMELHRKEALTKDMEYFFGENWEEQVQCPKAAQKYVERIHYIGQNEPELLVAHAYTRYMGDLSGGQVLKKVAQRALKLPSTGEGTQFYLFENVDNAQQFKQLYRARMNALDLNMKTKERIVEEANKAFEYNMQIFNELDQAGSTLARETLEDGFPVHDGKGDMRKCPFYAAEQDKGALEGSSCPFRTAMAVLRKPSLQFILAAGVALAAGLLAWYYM
# [5] = molecular target: Receptor-interacting serine/threonine-protein kinase 2 (Homo sapiens, UniProt O43353)
# Receptor-interacting serine/threonine-protein kinase 2, sequence (O43353 whole entry): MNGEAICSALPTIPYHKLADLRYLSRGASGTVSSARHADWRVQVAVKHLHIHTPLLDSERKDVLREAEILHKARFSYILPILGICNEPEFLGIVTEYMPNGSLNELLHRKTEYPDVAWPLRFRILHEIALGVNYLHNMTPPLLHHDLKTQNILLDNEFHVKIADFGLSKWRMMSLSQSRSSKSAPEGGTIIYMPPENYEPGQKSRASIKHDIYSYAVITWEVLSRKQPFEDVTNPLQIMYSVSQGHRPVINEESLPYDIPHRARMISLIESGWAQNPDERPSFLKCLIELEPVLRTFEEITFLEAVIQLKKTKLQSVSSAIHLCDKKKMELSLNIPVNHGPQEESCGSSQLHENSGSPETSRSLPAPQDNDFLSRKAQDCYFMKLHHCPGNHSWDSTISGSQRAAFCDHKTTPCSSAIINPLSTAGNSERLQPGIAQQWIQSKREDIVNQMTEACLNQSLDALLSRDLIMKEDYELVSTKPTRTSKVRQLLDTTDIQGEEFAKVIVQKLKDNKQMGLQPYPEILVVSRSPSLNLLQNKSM
# Also: in the data inactive means no Kd found up to 30 µM.
Kd [1],Kd [2],Kd (Deoxycytidine kinase),Kd [3],Kd [4],Kd (Heme oxygenase 2),Kd [5],SMILES
> 30 µM (inactive),> 30 µM (inactive),> 30 µM (inactive),> 30 µM (inactive),> 30 µM (inactive),> 30 µM (inactive),> 30 µM (inactive),C[C@H]1CNCCCN1S(=O)(=O)c1cccc2cncc(F)c12
> 30 µM (inactive),> 30 µM (inactive),6.17 µM,> 30 µM (inactive),> 30 µM (inactive),> 30 µM (inactive),0.178 µM (active),Cc1nc2cc(-c3nn(C(C)C)c4ncnc(N)c34)ccc2o1
> 30 µM (inactive),> 30 µM (inactive),> 30 µM (inactive),> 30 µM (inactive),> 30 µM (inactive),> 30 µM (inactive),0.355 µM (active),Nc1ncnc2c1c(-c1cccc(OCc3ccccc3)c1)cn2[C@H]1C[C@@H](CN2CCC2)C1 [AEW-541]
> 30 µM (inactive),> 30 µM (inactive),> 30 µM (inactive),> 30 µM (inactive),> 30 µM (inactive),> 30 µM (inactive),> 30 µM (inactive),Cc1nc(NC(=O)N2CCC[C@H]2C(N)=O)sc1-c1ccnc(C(C)(C)C(F)(F)F)c1 [ALPELISIB]
> 30 µM (inactive),> 30 µM (inactive),> 30 µM (inactive),> 30 µM (inactive),> 30 µM (inactive),> 30 µM (inactive),> 30 µM (inactive),C=CC(=O)Nc1cc2c(Nc3ccc(F)c(Cl)c3)ncnc2cc1C#CC(C)(C)N1CCN(C)CC1 [AV-412 FREE BASE]
> 30 µM (inactive),> 30 µM (inactive),> 30 µM (inactive),> 30 µM (inactive),> 30 µM (inactive),> 30 µM (inactive),> 30 µM (inactive),Cc1cc(C(=O)NOCCO)c(Nc2ccc(I)cc2F)n(C)c1=O [AZD-8330]
> 30 µM (inactive),> 30 µM (inactive),> 30 µM (inactive),> 30 µM (inactive),> 30 µM (inactive),> 30 µM (inactive),> 30 µM (inactive),Cn1cnc2c(F)c(Nc3ccc(Br)cc3F)c(C(=O)NOCCO)cc21 [BINIMETINIB]
> 30 µM (inactive),> 30 µM (inactive),> 30 µM (inactive),> 30 µM (inactive),> 30 µM (inactive),> 30 µM (inactive),> 30 µM (inactive),CCn1c(C(=O)N(C2CC2)C2CC2)cc2c3c(ncn3C)c(Nc3cc(C)n(C)n3)nc21 [BMS-911543]
> 30 µM (inactive),> 30 µM (inactive),> 30 µM (inactive),> 30 µM (inactive),> 30 µM (inactive),> 30 µM (inactive),0.442 µM (active),COc1cc2ncnc(Oc3cccc(NC(=O)Nc4cc(C(C)(C)C(F)(F)F)on4)c3)c2cc1OC [CEP-32496]
> 30 µM (inactive),> 30 µM (inactive),> 30 µM (inactive),> 30 µM (inactive),> 30 µM (inactive),> 30 µM (inactive),> 30 µM (inactive),Cc1cc(Nc2ncc(Cl)c(Nc3ccccc3S(=O)(=O)C(C)C)n2)c(OC(C)C)cc1C1CCNCC1 [CERITINIB]
> 30 µM (inactive),> 30 µM (inactive),> 30 µM (inactive),> 30 µM (inactive),> 30 µM (inactive),> 30 µM (inactive),> 30 µM (inactive),COc1c(OCCCN2CCOCC2)ccc2c1N=C(NC(=O)c1cnc(N)nc1)N1CCN=C21 [COPANLISIB]
> 30 µM (inactive),> 30 µM (inactive),> 30 µM (inactive),> 30 µM (inactive),> 30 µM (inactive),> 30 µM (inactive),> 30 µM (inactive),COCC(=O)NC/C=C/c1ccc2ncnc(Nc3ccc(Oc4ccc(C)nc4)c(C)c3)c2c1 [CP-724714]
> 30 µM (inactive),> 30 µM (inactive),> 30 µM (inactive),> 30 µM (inactive),> 30 µM (inactive),> 30 µM (inactive),1.09 µM (active),C#Cc1cccc(Nc2ncnc3cc(OC)c(OCCCCCCC(=O)NO)cc23)c1 [CUDC-101]
2.82 µM,> 30 µM (inactive),> 30 µM (inactive),0.062 µM (active),> 30 µM (inactive),> 30 µM (inactive),> 30 µM (inactive),CCS(=O)(=O)N1CCN(c2ccc(Nc3ncc(C(N)=O)c(NC4CC4)n3)cc2)CC1 [Cerdulatinib Hydrochloride]
> 30 µM (inactive),> 30 µM (inactive),> 30 µM (inactive),> 30 µM (inactive),> 30 µM (inactive),> 30 µM (inactive),0.038 µM (active),Cc1cccc(-c2nn3c(c2-c2ccnc4ccc(C(N)=O)cc24)CCC3)n1 [GALUNISERTIB]
> 30 µM (inactive),1.43 µM (active),2.16 µM (active),> 30 µM (inactive),> 30 µM (inactive),> 30 µM (inactive),0.611 µM (active),CCn1cc(-c2ccnc3[nH]c(-c4cccc(CN(C)C)c4)cc23)c(-c2ccc(NC(=O)N(C)C)cc2)n1 [GSK-1070916]
> 30 µM (inactive),> 30 µM (inactive),> 30 µM (inactive),> 30 µM (inactive),> 30 µM (inactive),> 30 µM (inactive),> 30 µM (inactive),COc1ccc(S(=O)(=O)N(C(C)=O)c2ccccc2/C=C/c2cc[n+]([O-])cc2)cc1 [HMN-214]
> 30 µM (inactive),> 30 µM (inactive),> 30 µM (inactive),> 30 µM (inactive),> 30 µM (inactive),> 30 µM (inactive),0.199 µM (active),CNC(=O)c1cccc2cc(Oc3ccnc4cc(OCC5(N)CC5)c(OC)cc34)ccc12 [LUCITANIB]
1.75 µM (active),4.02 µM (active),> 30 µM (inactive),> 30 µM (inactive),> 30 µM (inactive),> 30 µM (inactive),> 30 µM (inactive),CNC(=O)c1nn(C)c2c1C(C)(C)Cc1cnc(Nc3ccc(N4CCN(C)CC4)cc3)nc1-2 [MILCICLIB]

SMILES,Kd [1],Kd [2],Kd (Deoxycytidine kinase),Kd [3],Kd [4],Kd (Heme oxygenase 2),Kd [5]
O=C(Nc1nc2cccc(-c3ccc(CN4CCS(=O)(=O)CC4)cc3)n2n1)C1CC1 [FILGOTINIB],> 30 µM (inactive),> 30 µM (inactive),> 30 µM (inactive),> 30 µM (inactive),> 30 µM (inactive),> 30 µM (inactive),> 30 µM (inactive)
